Data taken from patent US20040223946A1, “Adhesive treatment for insect and related bites” (Closure Medical Corporation, priority 2003, published 2004).

Test: Observation of the monomer composition about one minute and at least twenty-four hours after preparation
Type: physicochemical
Details: 1 wt % in 2 mL 2-octyl cyanoacrylate monomer
Description: A 2-octyl cyanoacrylate monomer composition is prepared by adding 1 wt % menthol to 2 mL of 2-octyl cyanoacrylate monomer. The mixture is stirred.
The characteristics of the composition are observed at about one minute after preparation and later at least twenty-four hours after preparation.

Structure (SMILES): CC1CCC(C(C)C)C(O)C1 (stereo not shown) [menthol]
- solubility of the additive in 2-octyl cyanoacrylate monomer: soluble in the monomer
